The values that follow come from patent US20230277504A1, “COMPOSITIONS AND METHODS COMPRISING CELECOXIB OR RELATED COMPOUNDS AND DEXTROMETHORPHAN” (ANTECIP BIOVENTURES II LLC, priority 2012, published 2023).

pIC50: −log10 of the molar value. Several values for one entry are separate records, joined by “and”; a condition that tells them apart may be missing. Equal entries are not always repeated. Where two headings read alike, the source gives them in different places.

The target in series [1] is T1, dextromethorphan metabolism (demethylation; CYP2D6) in human liver microsomes (Homo sapiens, UniProt P10635).
T1 construct: in the presence of dextromethorphan (2.5 μM) and human liver microsomes (0.5 mg/mL) at 37° C; from tissue; host or cells: human liver microsomes
Briefly: Inhibition of dextromethorphan metabolism in human liver microsomes. The class given is in vitro ADME. On the procedure: Inhibition of dextromethorphan metabolism was examined using human liver microsomes. […] In addition, the assay contained NADPH (2 mM), MgCl2 (3 mM), and potassium phosphate buffer (50 mM) at pH 7.4. The assay was initiated by adding the NADPH, and incubation was terminated after 10 minutes by addition of acetonitrile. The samples were centrifuged, and the metabolism of dextromethorphan was analyzed by LC/MS/MS. […] The same assay was carried out on a number of NSAIDs.
In general terms: Microsomes from liver hold many membrane-bound enzymes, among them those of drug oxidation.

Another series deals with pain. Particulars: cited from earlier work.
The conditions of series [2]: extensive metabolizers of dextromethorphan; 'believed to be'; cited from earlier work.

T1 sequence (P10635 whole entry): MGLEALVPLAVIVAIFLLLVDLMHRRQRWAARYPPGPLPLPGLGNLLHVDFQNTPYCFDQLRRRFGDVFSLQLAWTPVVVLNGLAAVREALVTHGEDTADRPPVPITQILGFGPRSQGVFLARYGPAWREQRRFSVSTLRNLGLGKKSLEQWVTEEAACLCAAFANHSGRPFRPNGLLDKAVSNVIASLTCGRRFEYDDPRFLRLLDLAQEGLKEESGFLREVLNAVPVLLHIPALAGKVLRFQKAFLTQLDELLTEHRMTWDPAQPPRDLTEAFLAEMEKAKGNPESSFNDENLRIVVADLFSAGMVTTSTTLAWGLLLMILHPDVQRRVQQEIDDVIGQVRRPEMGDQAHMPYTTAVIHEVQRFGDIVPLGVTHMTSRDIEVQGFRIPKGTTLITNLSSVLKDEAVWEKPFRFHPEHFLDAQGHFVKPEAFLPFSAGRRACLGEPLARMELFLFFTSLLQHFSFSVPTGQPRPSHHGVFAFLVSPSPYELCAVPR

As to `CC1=C(CC(=O)O)c2cc(F)ccc2/C1=C\c1ccc([S+](C)[O-])cc1` (stereo not shown) [Sulindac], the pIC50 (in general, the negative decadic logarithm of the IC50, by convention in mol/L) in series [1] was below 4.44.

For the compound `Cc1ccc(-c2cc(C(F)(F)F)nn2-c2ccc(S(N)(=O)=O)cc2)cc1` [Celecoxib], in series [1], the negative logarithm of the IC50 (pIC50) was 5.54 to 5.59 and the “times as active at inhibiting the metabolism of dextromethorphan as the next best compound” value is recorded as “about five”. Moreover, the pIC50 in series [1] (IC50 (inhibition of dextromethorphan metabolism), human liver microsomes 0.5 mg/mL, dextromethorphan 2.5 μM, NADPH 2 mM, 37° C., pH 7.4, 10 minutes, LC/MS/MS) was 5.59 and 5.54. Also, in series [1] (human, 10 min, pH 7.4), the “times as active at inhibiting the metabolism of dextromethorphan as 6-methoxy-2-naphthyl acetic acid” value is given as “more than 500 times”.

In the case of `COc1ccc2c(c1)[C@]13CCCC[C@@H]1[C@H](C2)N(C)CC3` [dextromethorphan, Dextromethorphan], the analgesic efficacy entry with pain (double-blind human studies in chronic and neuropathic pain, review of Weinbroum et al.) is “ineffective for the most part”; with pain (patients with facial neuralgias, Gilron et al.), “little or no analgesic efficacy”. Further, the “pain reduction versus placebo” value in the series on pain (patients with diabetic neuropathy and postherpetic neuralgia, Sang et al.) is given as “did not reduce pain significantly more than placebo”. The clearance result in series [2] is “about 110 L/min”.

`CC(C(=O)O)c1ccc(-c2ccccc2)c(F)c1` (stereo not shown) [Flurbiprofen] gave a pIC50 in series [1] below 3.49.

As to `COc1ccc2cc(CC(=O)O)ccc2c1` [6-methoxy-2-naphthyl acetic acid], the pIC50 in series [1] (human liver microsomes 0.5 mg/mL, dextromethorphan 2.5 μM, NADPH 2 mM, 37° C., pH 7.4, 10 minutes, LC/MS/MS, read-out: IC50 (inhibition of dextromethorphan metabolism)) was below 2.75.

Turning to `Cc1onc(-c2ccccc2)c1-c1ccc(S(N)(=O)=O)cc1` [Valdecoxib], the pIC50 in series [1] is 4.82.

In turn, `CS(=O)(=O)c1ccc(C2=C(c3ccccc3)C(=O)OC2)cc1` [Rofecoxib] gave a pIC50 in series [1] of 4.35.
